Measurements from ChEMBL document CHEMBL4138154, “Conformationally rigid derivatives of WAY-267,464: Synthesis and pharmacology at the human oxytocin and vasopressin-1a receptors” (Eur J Med Chem, 2018).

How the values were obtained:
Vasopressin V1a receptor [1] = biological target: T1, Vasopressin V1a receptor (Homo sapiens, UniProt P37288); test: Antagonist activity at human vasopressin V1a receptor expressed in HEK293 cells assessed as inhibition of vasopressin-induced IP1 accumulation preincubated for 30 mins followed by vasopressin addition measured after 1 hr by HTRF assay; type: functional, cell-based
Oxytocin receptor [2] = biological target: T2, Oxytocin receptor (Homo sapiens, UniProt P30559); test: Agonist activity at human OTR expressed in HEK293 cells assessed as induction of IP1 accumulation after 1 hr by HTRF assay; type: functional, cell-based
T2 sequence (P30559 whole entry): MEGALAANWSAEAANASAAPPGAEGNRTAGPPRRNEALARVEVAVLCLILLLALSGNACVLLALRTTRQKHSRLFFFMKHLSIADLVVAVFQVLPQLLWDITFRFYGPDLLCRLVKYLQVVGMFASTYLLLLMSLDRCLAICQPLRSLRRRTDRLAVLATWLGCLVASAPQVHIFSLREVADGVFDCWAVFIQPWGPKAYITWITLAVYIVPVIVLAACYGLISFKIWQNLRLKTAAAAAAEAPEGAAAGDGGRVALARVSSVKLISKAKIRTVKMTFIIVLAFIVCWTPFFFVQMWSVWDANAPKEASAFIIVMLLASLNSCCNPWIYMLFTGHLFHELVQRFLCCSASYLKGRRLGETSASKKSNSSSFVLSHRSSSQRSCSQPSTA

Vasopressin V1a receptor [3] = biological target: T1, Vasopressin V1a receptor; test: Agonist activity at human vasopressin V1a receptor expressed in HEK293 cells assessed as induction of IP1 accumulation after 1 hr by HTRF assay; type: functional, cell-based
Oxytocin receptor [4] = biological target: T2, Oxytocin receptor; test: Antagonist activity at human OTR expressed in HEK293 cells assessed as inhibition of agonist-induced IP1 accumulation preincubated for 30 mins followed by agonist addition measured after 1 hr by HTRF assay; type: functional, cell-based
Vasopressin V1a receptor [5] = biological target: T1, Vasopressin V1a receptor; test: Displacement of [3H]-vasopressin from human vasopressin V1a receptor expressed in HEK293 cell membranes after 90 mins by radioligand binding assay
Oxytocin receptor [6] = biological target: T2, Oxytocin receptor; test: Displacement of [3H]-oxytocin from human OTR expressed in HEK293 cell membranes after 90 mins by radioligand binding assay

T1 sequence (P37288 whole entry): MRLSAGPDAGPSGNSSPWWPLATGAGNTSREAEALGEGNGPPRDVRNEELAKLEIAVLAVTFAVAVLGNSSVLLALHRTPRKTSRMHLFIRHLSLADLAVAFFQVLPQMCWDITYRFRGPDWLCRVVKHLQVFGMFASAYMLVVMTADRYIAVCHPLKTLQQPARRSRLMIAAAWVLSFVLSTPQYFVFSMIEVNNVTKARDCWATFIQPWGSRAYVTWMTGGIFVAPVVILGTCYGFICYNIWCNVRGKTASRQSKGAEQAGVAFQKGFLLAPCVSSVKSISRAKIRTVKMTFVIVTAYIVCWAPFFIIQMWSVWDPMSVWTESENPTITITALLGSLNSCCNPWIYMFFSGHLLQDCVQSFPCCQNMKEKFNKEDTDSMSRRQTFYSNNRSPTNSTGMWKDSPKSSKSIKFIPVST

Row | IC50 (Vasopressin V1a receptor [1]) | EC50 (Oxytocin receptor [2]) | EC50 (Vasopressin V1a receptor [3]) | IC50 (Oxytocin receptor [4]) | Ki (Vasopressin V1a receptor [5]) | Ki (Oxytocin receptor [6]) | Structure (SMILES)
1 | > 10 µM | > 10 µM | > 10 µM | > 10 µM | 1.76 µM | > 10 µM | Cn1ncc2c1Nc1ccccc1N(C(=O)CCc1ccc(N3CCN(Cc4cc(O)cc(O)c4)CC3)cc1)C2
2 | > 10 µM | > 10 µM | > 10 µM | > 10 µM | 1.94 µM | > 10 µM | Cn1ncc2c1Nc1ccccc1N(C(=O)Cc1ccccc1N1CCN(Cc3cc(O)cc(O)c3)CC1)C2
3 | > 10 µM | > 10 µM | > 10 µM | > 10 µM | 0.874 µM | > 10 µM | Cn1ncc2c1Nc1ccccc1N(C(=O)CCc1cccc(N3CCN(Cc4cc(O)cc(O)c4)CC3)c1)C2
4 | > 10 µM | > 10 µM | > 10 µM | > 10 µM | 0.251 µM | > 10 µM | Cn1ncc2c1Nc1ccccc1N(C(=O)CCc1ccccc1N1CCN(Cc3cc(O)cc(O)c3)CC1)C2

The remaining lines, values behind:

Row | Structure (SMILES) | IC50 (Vasopressin V1a receptor [1]) | EC50 (Oxytocin receptor [2]) | EC50 (Vasopressin V1a receptor [3]) | IC50 (Oxytocin receptor [4]) | Ki (Vasopressin V1a receptor [5]) | Ki (Oxytocin receptor [6])
5 | COc1cc(CN2CCN(c3ccccc3CC(=O)N3Cc4cnn(C)c4Nc4ccccc43)CC2)cc(OC)c1 | > 10 µM | > 10 µM | > 10 µM | > 10 µM | 6.81 µM | > 10 µM
6 | COc1cc(CN2CCN(c3cccc(CCC(=O)N4Cc5cnn(C)c5Nc5ccccc54)c3)CC2)cc(OC)c1 | > 10 µM | > 10 µM | > 10 µM | > 10 µM | 3.34 µM | > 10 µM
7 | Cn1ncc2c1Nc1ccccc1N(C(=O)Cc1cccc(N3CCN(Cc4cc(O)cc(O)c4)CC3)c1)C2 | > 10 µM | > 10 µM | > 10 µM | > 10 µM | 0.643 µM | > 10 µM
8 | Cn1ncc2c1Nc1ccccc1N(C(=O)Cc1ccc(N3CCN(Cc4cc(O)cc(O)c4)CC3)cc1)C2 | > 10 µM | > 10 µM | > 10 µM | > 10 µM | 0.795 µM | > 10 µM
9 | COc1cc(CN2CCN(c3ccc(CC(=O)N4Cc5cnn(C)c5Nc5ccccc54)cc3)CC2)cc(OC)c1 | > 10 µM | > 10 µM | > 10 µM | > 10 µM | 1.91 µM | > 10 µM
10 | COc1cc(CN2CCN(c3cccc(CC(=O)N4Cc5cnn(C)c5Nc5ccccc54)c3)CC2)cc(OC)c1 | > 10 µM | > 10 µM | > 10 µM | > 10 µM | 2.1 µM | > 10 µM
11 | COc1cc(CN2CCN(c3ccccc3CCC(=O)N3Cc4cnn(C)c4Nc4ccccc43)CC2)cc(OC)c1 | > 10 µM | > 10 µM | > 10 µM | > 10 µM | 1.06 µM | > 10 µM
12 | COc1cc(CN2CCN(c3ccc(CCC(=O)N4Cc5cnn(C)c5Nc5ccccc54)cc3)CC2)cc(OC)c1 | > 10 µM | > 10 µM | > 10 µM | > 10 µM | 6.25 µM | > 10 µM
